Earlier results on one compound are cited in article doi:10.1101/2023.04.03.535218, “Distributable, Metabolic PET Reporting of Tuberculosis” (bioRxiv, 2023).

Structures are written as SMILES.

This data set concerns the target T1, OtsA^Sf (Escherichia coli, UniProt P31677).
T1 construct: C-terminally tagged, purified on Ni-NTA
T1 sequence (P31677 2-474): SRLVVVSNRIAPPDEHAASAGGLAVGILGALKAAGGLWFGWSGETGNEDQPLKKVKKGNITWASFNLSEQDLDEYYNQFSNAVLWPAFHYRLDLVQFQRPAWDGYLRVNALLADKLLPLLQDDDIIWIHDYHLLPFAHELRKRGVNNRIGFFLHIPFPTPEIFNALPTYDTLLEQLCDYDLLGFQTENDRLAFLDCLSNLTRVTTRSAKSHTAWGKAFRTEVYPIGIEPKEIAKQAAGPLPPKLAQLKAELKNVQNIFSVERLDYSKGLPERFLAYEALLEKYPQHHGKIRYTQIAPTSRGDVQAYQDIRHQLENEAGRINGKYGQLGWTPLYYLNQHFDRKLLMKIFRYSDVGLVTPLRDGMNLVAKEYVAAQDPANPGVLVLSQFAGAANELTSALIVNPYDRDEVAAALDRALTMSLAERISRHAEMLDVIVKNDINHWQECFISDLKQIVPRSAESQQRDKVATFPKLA
Put plainly: NADH-linked continuous assay (Methods). Type of data set: biochemical. The note with it: co-substrate UDP-Glc; table note a (taken from Reference 41) is also set on this row, text presents it as own.

By Km is commonly meant the concentration of substrate that gives half-maximal velocity. Regarding `O=P(O)(O)OC[C@H]1OC(O)[C@H](O)[C@@H](O)[C@@H]1O` (stereo partly shown) [G6P], the Michaelis constant (Km) was 4.9 ± 0.5 mM.
